From US11040976B2, “Substrate selective inhibitors of insulin-degrading enzyme (IDE) and uses thereof” (President and Fellows of Harvard College, priority 2015, dated 2021)

Legend:
[1] = test system: human IDE Ile362Gln and Gly362Gln; assay: Activity assay of mutant human IDE variants Ile362Gln and Gly362Gln with IDE inhibitors; type: biochemical
Excerpt: N-His6-tagged human IDE42-1019 construct was introduced in the expression plasmid pTrcHis-A (Invitrogen) using primers for uracil-specific excision reactions (USER) by Taq (NEB) and Pfu polymerases (PfuTurbo CX®, Agilent), as described in more detail in Maianti et al. (Nature (2014), 511, 94-98), which is incorporated by reference herein. The IDE gene was amplified with the primers 5′-[…]-dU-[…] (SEQ ID NO: 26) and 5′-[…] G-dU-[…] (SEQ ID NO: 27) (underlined sequences represent overhangs, and italics highlight the PCR priming sequence). Similarly, the pTrcHis-A vector was amplified for USER cloning with the primers 5′-[…]-dU-[…] (SEQ ID NO: 28) and 5′-[…]-dU-[…] (SEQ ID NO: 29). Mutant IDE constructs were generated by amplifying the full vector construct with USER cloning primers introducing a mutant overhang (see Table E6).
Recombinant His6-tagged proteins were purified by Ni(II)-affinity chromatography (IMAC sepharose beads, GE Healthcare®) according to the manufacturer's instructions. The cell pellets were re-suspended in pH 8.0 buffer containing 50 mM phosphate, 300 mM NaCl, 10 mM imidazole, 1% Triton X-100 and 1 mM tris(2-carboxyethyl)phosphine hydrochloride (TCEP), and were lysed by probe sonication for 4 minutes at <4° C., followed by clearing of cell debris by centrifugation at 10,000 g for 25 minutes at 4° C. […]

[2] = target: T1, IDE, substrate amylin (fp) peptide (Homo sapiens, UniProt P14735); assay: IDE concentration dependence profile with fluorogenic amylin analog; type: biochemical; conditions: FIGS. 11B and 11C
T1 sequence (P14735 1-1019): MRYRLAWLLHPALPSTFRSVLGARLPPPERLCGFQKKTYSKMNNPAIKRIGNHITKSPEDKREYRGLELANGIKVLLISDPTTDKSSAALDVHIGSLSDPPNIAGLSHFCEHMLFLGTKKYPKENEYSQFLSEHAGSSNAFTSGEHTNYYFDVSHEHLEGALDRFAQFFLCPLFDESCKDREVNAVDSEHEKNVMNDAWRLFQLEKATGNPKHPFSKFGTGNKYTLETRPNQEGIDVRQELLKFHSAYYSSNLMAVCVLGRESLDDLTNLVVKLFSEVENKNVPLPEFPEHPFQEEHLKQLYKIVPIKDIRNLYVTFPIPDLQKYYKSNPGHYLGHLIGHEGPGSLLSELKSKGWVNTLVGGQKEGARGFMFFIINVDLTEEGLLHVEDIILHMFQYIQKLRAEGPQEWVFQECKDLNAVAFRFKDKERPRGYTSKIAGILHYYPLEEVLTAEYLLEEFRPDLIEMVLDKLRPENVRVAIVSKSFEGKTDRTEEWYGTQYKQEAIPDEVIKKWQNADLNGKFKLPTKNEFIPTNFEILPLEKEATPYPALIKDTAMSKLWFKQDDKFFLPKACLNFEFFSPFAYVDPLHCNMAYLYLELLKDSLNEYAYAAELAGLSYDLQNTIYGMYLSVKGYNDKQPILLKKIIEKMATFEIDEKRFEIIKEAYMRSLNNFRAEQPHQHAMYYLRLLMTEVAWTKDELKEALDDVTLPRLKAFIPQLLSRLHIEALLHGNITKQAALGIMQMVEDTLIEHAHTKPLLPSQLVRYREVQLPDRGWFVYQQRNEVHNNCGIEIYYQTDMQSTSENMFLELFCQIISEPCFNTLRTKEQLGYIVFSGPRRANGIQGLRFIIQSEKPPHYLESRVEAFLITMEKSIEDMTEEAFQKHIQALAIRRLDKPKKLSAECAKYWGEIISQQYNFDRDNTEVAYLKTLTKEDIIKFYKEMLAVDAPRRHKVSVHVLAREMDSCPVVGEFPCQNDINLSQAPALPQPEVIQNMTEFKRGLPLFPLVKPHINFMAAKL
Procedure: In order to determine the behavior of the inhibitors with respect to amylin, a concentration dependence profile was measured for IDE in the presence of a specified concentration of inhibitor and a fluorogenic amylin analog. The amylin (fp) peptide sequence was KCNTATCATXRLANFLVHSSNNZGAILSSTNVGSNTY-NH2 (SEQ ID NO: 8). The residue marked as X is Lys-γN-anthrinilamide, and the residue marked as Z is 3-nitro-Tyr.

Cc1cccc(-c2ccc([C@@H]3[C@@H](CO)N4CCCCN(S(=O)(=O)c5ccccc5C)C[C@@H]34)cc2)c1 [compound 297]
effect of mutations Ile362Gln and Gly362Gln on inhibition potency [1]: reduce the inhibition potency | selectivity for inhibiting degradation of amylin over glucagon ([2]; amylin (fp) curve compared with HTRF glucagon curve): selectivity for inhibiting degradation of amylin over degradation of glucagon | selectivity for inhibiting degradation of insulin over amylin and glucagon ([2]; amylin (fp) curve compared with HTRF insulin and glucagon curves): selectivity for inhibiting degradation of insulin over degradation of amylin and glucagon
